Data reported in PMC10734772 (Turkish Journal of Chemistry, 2021).

Key:
Format in all cases: cell-based
[1] = system: K562; experiment: MTT assay, K562 cells; settings: Homo sapiens, 24 h, MTT, read-out: Viability rate
Protocol: After incubation (on the third day), to precipitate leukemia cells, the cell plate was centrifuged at 1500 rpm for 5 min. […] The 50 μl of supernatant was discarded from each well and 100 μl of DMSO was added to dissolve the formazan. Plates were shaken for 45 min to dissolve the dye. Then the optical density of each well was measured by using Thermo VarioSkan Flush Multimode Reader Quantum ST5-1100 at 570 nm wavelength.
The IC50 values were calculated by using GraphPad Prism. All the data presented as the mean of 6 replicates. […] Statistical analysis was performed using dose-response inhibition, log(inhibitor) vs response-variable slope, least squares (ordinary) fit.

[2] = system: Nalm-6; experiment: MTT assay, Nalm-6 cells; settings: Homo sapiens, 24 h
[3] = system: Molt-4; experiment: MTT assay, Molt-4 cells; settings: Homo sapiens, MOLT-4, 24 h, read-out: Viability rate
Protocol: (§1) K562, Jurkat, Molt-4, and Nalm-6 cell lines were cultured in RPMI-1640 medium (ECM2001, Euroclone), Reh cell line was cultured in DMEM medium (LM-D1111-Biosera) Hek293T cell line was cultured in IMDM medium (AL070A - HiMedia) supplemented with 10% heat-inactivated fetal bovine serum (F7524-Merck & Co., USA,) penicillin and streptomycin (P4333-Sigma Aldrich). K562, Jurkat and Molt-4 cell lines were seeded as 4x10^5/ml, Reh and Nalm-6 cell lines were seeded 5x10^5/ml, Hek293T cell line was seed as 2x10^5/ml. All cells were incubated at 5% CO2 and 37 °C. All cell lines were kindly provided by Dr. M. Sayitoglu and Dr. Ö. Hatirnaz-Ng from Acibadem University.
(§2) MTT assay is a 3-day test. On the first day, cell count was performed in Bio Rad TC-20 device with the help of trypan blue, each cell line was prepared by diluting to the specified concentrations and seeded in a 96-well plate as 100μL to each well and incubated for 1 day.
(§3) Each compound was solved in DMSO, their stock solutions (33.3, 10, 5, 1 mM, and 300 μM) were prepared by diluting with the same solvent and they were stored under −20°C when they were not used.
(§4) On the second day, stock solutions were subsequently diluted to various concentrations (0.3–200 μM) with related medium prior to experiments. Specified concentrations of the compounds were seeded in a 96-well plate as 100μL to each well and incubated for 24 h.
(§5) After incubation (on the third day), to precipitate leukemia cells, the cell plate was centrifuged at 1500 rpm for 5 min. Then, 100 μL of supernatant was removed from each well carefully and 10 μl of MTT solution (5 mg/mL) was added to each well and incubated at 37 °C for 4 h. The 50 μl of supernatant was discarded from each well and 100 μl of DMSO was added to dissolve the formazan. Plates were shaken for 45 min to dissolve the dye. Then the optical density of each well was measured by using Thermo VarioSkan Flush Multimode Reader Quantum ST5-1100 at 570 nm wavelength.
(§6) Subsequently, viability rate of the cells at each concentration, as percentage, was determined by following formula (1):
(§7) Viability rate (%)=100-[(OD(control)-OD(sample))/OD(control)×100].OD=Optical Density
(§8) The IC50 values were calculated by using GraphPad Prism. All the data presented as the mean of 6 replicates. Results were analyzed and illustrated with Graph Pad Prism (version 5; GraphPad Software, San Diego, CA, USA). Statistical analysis was performed using dose-response inhibition, log(inhibitor) vs response-variable slope, least squares (ordinary) fit.
(§9) To evaluate in-vitro anti-cancer activity of the newly synthesized compounds, they were tested by using the MTT assay in the BCR-ABL positive leukemic cell line (K562), BCR-ABL negative leukemic cell lines (Nalm-6, Molt-4, Reh and Jurkat), and non-leukemic human embryonic kidney tissue (Hek293T) cell line. […] The viability rate of each concentration was calculated by the formula stated in material and methods, the viability rate results for each cell were presented in Table S2 and Figure S44.

[4] = system: Reh; experiment: MTT assay, Reh cells; settings: Homo sapiens, 24 h, read-out: Viability rate
Protocol: as §1, §2, §3, §4, §5, §6, §7, §8, §9

[5] = system: Jurkat; experiment: MTT assay, Jurkat cells; settings: Homo sapiens, 24 h, read-out: Viability rate
Protocol: as §1, §2, §3, §4, §5, §6, §7, §8, §9

[6] = MTT assay, Hek293T non-leukemic control cells; settings: human, read-out: Viability rate
Protocol: as §1, §2, §3, §4, §5, §6, §7, §8, §9

[7] = system: K562, Nalm-6, Molt-4, Reh, Jurkat, Hek293T cell lines; experiment: MTT assay, overall judgement over all cell lines; settings: overall judgement in words; for 6 and 10: on all cell lines, except Reh
Protocol: as §9

## COc1ccc(CN2CCN(Cc3ccc(C(=O)Nc4ccc(C)c(Nc5nccc(C)n5)c4)cc3)CC2)c(OC)c1OC [Compound 6]
[1]; K562, 0.3 μM
  viability at 0.3 µM: 92.5 ± 0.11%
[1]; K562, 0.5 μM
  viability at 0.5 µM: 91.8 ± 0.06%
[1]; K562, 1 μM
  viability at 1 µM: 91.8 ± 0.04%
[1]; K562, 3 μM
  viability at 3 µM: 88.7 ± 0.05%
[1]; K562, 5 μM
  viability at 5 µM: 87.6 ± 0.05%
[1]; K562, 10 μM
  viability at 10 µM: 87.3 ± 0.11%
[1]; K562, 15 μM
  viability at 15 µM: 87.3 ± 0.1%
[1]; K562, 20 μM
  viability at 20 µM: 86.5 ± 0.07%
[1]; K562, 30 μM
  viability at 30 µM: 85.5 ± 0.1%
[1]; K562, 50 μM
  viability at 50 µM: 78.1 ± 0.1%
[1]; K562, 70 μM
  viability at 70 µM: 68.5 ± 0.05%
[1]; K562, 100 μM
  viability at 100 µM: 67.5 ± 0.03%
[1]; K562, 150 μM
  viability at 150 µM: 67.3 ± 0.02%
[1]; K562, 200 μM
  viability at 200 µM: 67.2 ± 0.03%
[2]; Nalm-6, 0.3 μM, MTT, read-out: Viability rate
  viability at 0.3 µM: 100.7 ± 0.01%
[2]; Nalm-6, 0.5 μM, MTT, read-out: Viability rate
  viability at 0.5 µM: 100.5 ± 0.02%
[2]; Nalm-6, 1 μM, MTT, read-out: Viability rate
  viability at 1 µM: 100.1 ± 0.03%
[2]; Nalm-6, 3 μM, MTT, read-out: Viability rate
  viability at 3 µM: 100 ± 0.04%
[2]; Nalm-6, 5 μM, MTT, read-out: Viability rate
  viability at 5 µM: 98.8 ± 0.04%
[2]; Nalm-6, 10 μM, MTT, read-out: Viability rate
  viability at 10 µM: 98 ± 0.02%
[2]; Nalm-6, 15 μM, MTT, read-out: Viability rate
  viability at 15 µM: 95.6 ± 0.02%
[2]; Nalm-6, 20 μM, MTT, read-out: Viability rate
  viability at 20 µM: 82.6 ± 0.02%
[2]; Nalm-6, 30 μM, MTT, read-out: Viability rate
  viability at 30 µM: 71.6 ± 0.01%
[2]; Nalm-6, 50 μM, MTT, read-out: Viability rate
  viability at 50 µM: 55.2 ± 0.01%
[2]; Nalm-6, 70 μM, MTT, read-out: Viability rate
  viability at 70 µM: 43.5 ± 0.01%
[2]; Nalm-6, 100 μM, MTT, read-out: Viability rate
  viability at 100 µM: 42.6 ± 0.01%
[2]; Nalm-6, 150 μM, MTT, read-out: Viability rate
  viability at 150 µM: 42.9 ± 0.01%
[2]; Nalm-6, 200 μM, MTT, read-out: Viability rate
  viability at 200 µM: 42.8%
[2]; Nalm-6, MTT, range 0.3–200 μM, six replicates
  IC50: 48 µM
[3]; Molt-4, 0.3 μM
  viability at 0.3 µM: 84.4 ± 0.14%
[3]; Molt-4, 0.5 μM
  viability at 0.5 µM: 79.7 ± 0.1%
[3]; Molt-4, 1 μM
  viability at 1 µM: 78.7 ± 0.09%
[3]; Molt-4, 3 μM
  viability at 3 µM: 79.7 ± 0.18%
[3]; Molt-4, 5 μM
  viability at 5 µM: 80.5 ± 0.16%
[3]; Molt-4, 10 μM
  viability at 10 µM: 81.8 ± 0.07%
[3]; Molt-4, 15 μM
  viability at 15 µM: 79.2 ± 0.15%
[3]; Molt-4, 20 μM
  viability at 20 µM: 76 ± 0.05%
[3]; Molt-4, 30 μM
  viability at 30 µM: 75.4 ± 0.08%
[3]; Molt-4, 50 μM
  viability at 50 µM: 73.5 ± 0.04%
[3]; Molt-4, 70 μM
  viability at 70 µM: 68.9 ± 0.06%
[3]; Molt-4, 100 μM
  viability at 100 µM: 61.7 ± 0.02%
[3]; Molt-4, 150 μM
  viability at 150 µM: 59.9 ± 0.05%
[3]; Molt-4, 200 μM
  viability at 200 µM: 55.2 ± 0.04%
[4]; 0.3 μM
  viability at 0.3 µM: 109.5 ± 0.02%
[4]; 0.5 μM
  viability at 0.5 µM: 105.2 ± 0.02%
[4]; 1 μM
  viability at 1 µM: 106.8 ± 0.01%
[4]; 3 μM
  viability at 3 µM: 107.9 ± 0.02%
[4]; 5 μM
  viability at 5 µM: 108.2 ± 0.01%
[4]; 10 μM
  viability at 10 µM: 106.9 ± 0.02%
[4]; 15 μM
  viability at 15 µM: 106.5 ± 0.02%
[4]; 20 μM
  viability at 20 µM: 97.7 ± 0.02%
[4]; 30 μM
  viability at 30 µM: 88.6 ± 0.03%
[4]; 50 μM
  viability at 50 µM: 85.6 ± 0.02%
[4]; 70 μM
  viability at 70 µM: 65.3 ± 0.02%
[4]; 100 μM
  viability at 100 µM: 62.2 ± 0.01%
[4]; 150 μM
  viability at 150 µM: 61.3 ± 0.01%
[4]; 200 μM
  viability at 200 µM: 61.1 ± 0.02%
[5]; 3 μM
  viability at 3 µM: 79.1 ± 0.02%
[5]; 5 μM
  viability at 5 µM: 69.8 ± 0.02%
[5]; 10 μM
  viability at 10 µM: 69.7 ± 0.05%
[5]; 15 μM
  viability at 15 µM: 69.2 ± 0.02%
[5]; 20 μM
  viability at 20 µM: 68.9 ± 0.01%
[5]; 30 μM
  viability at 30 µM: 68.8 ± 0.03%
[5]; 50 μM
  viability at 50 µM: 59.1 ± 0.03%
[5]; 70 μM
  viability at 70 µM: 47.8 ± 0.01%
[5]; 100 μM
  viability at 100 µM: 44 ± 0.01%
[5]; 150 μM
  viability at 150 µM: 36.4 ± 0.01%
[5]; 200 μM
  viability at 200 µM: 35.3 ± 0.01%
[6]; Hek293T cells (non-leukemic control cell line), 0.3 μM
  viability at 24 h, 0.3 µM: 91.1 ± 0.15%
[6]; Hek293T cells (non-leukemic control cell line), 0.5 μM
  viability at 24 h, 0.5 µM: 90.8 ± 0.14%
[6]; Hek293T cells (non-leukemic control cell line), 3 μM
  viability at 24 h, 3 µM: 81.4 ± 0.09%
[6]; Hek293T cells (non-leukemic control cell line), 5 μM
  viability at 24 h, 5 µM: 78.5 ± 0.14%
[6]; Hek293T cells (non-leukemic control cell line), 10 μM
  viability at 24 h, 10 µM: 78.2 ± 0.02%
[6]; Hek293T cells (non-leukemic control cell line), 15 μM
  viability at 24 h, 15 µM: 70.6 ± 0.04%
[6]; Hek293T cells (non-leukemic control cell line), 20 μM
  viability at 24 h, 20 µM: 65.5 ± 0.1%
[6]; Hek293T cells (non-leukemic control cell line), 30 μM
  viability at 24 h, 30 µM: 57.4 ± 0.09%
[6]; Hek293T cells (non-leukemic control cell line), 50 μM
  viability at 24 h, 50 µM: 50.7 ± 0.05%
[6]; Hek293T cells (non-leukemic control cell line), 70 μM
  viability at 24 h, 70 µM: 48.8 ± 0.02%
[6]; Hek293T cells (non-leukemic control cell line), 100 μM
  viability at 24 h, 100 µM: 47.9 ± 0.01%
[6]; Hek293T cells (non-leukemic control cell line), 150 μM
  viability at 24 h, 150 µM: 47.7 ± 0.02%
[6]; Hek293T cells (non-leukemic control cell line), 200 μM
  viability at 24 h, 200 µM: 47 ± 0.02%
[6]; Hek293T cells, 1 μM
  viability at 24 h, 1 µM: 87 ± 0.15%
[7]
  anticancer activity according to MTT assay results: high anticancer activity
